The record followed here is US8404856B2, “Non-nucleoside reverse transcriptase inhibitors” (Merck Sharp & Dohme Corp., priority 2007, dated 2013).

Like-named read-outs stand apart in the source and are kept apart here.

By IC50 is commonly meant the midpoint of a concentration-inhibition curve.

The target of data set [1] is HIV-1 RT enzyme (wild-type) (Human immunodeficiency virus type 1 group M subtype B, UniProt P04585). Briefly: ECL assay for inhibition of HIV reverse transcriptase (WT). In kind it is biochemical. As for the experimental part: (§1) 100 μL reaction mixtures were initiated with a combination of primer-template substrate (10 nM final concentration) and dNTPs (0.6 μM dNTPs, 1.25 μM BrdUTP). The heterodimeric nucleic acid substrate was generated by annealing the DNA primer pD500 (described in Shaw-Reid et al., J. Biol. Chem., 278: 2777-2780; obtained from Integrated DNA Technologies) to t500, a 500 nucleotide RNA template created by in vitro transcription (see Shaw-Reid et al., J. Biol. Chem., 278: 2777-2780). After 1 hour incubation at 37° C., reactions were quenched by 10 μL of 1 N NaOH. Microtiter plates were incubated for an additional 30 minutes at room temperature and then neutralized with 10 μL of 1 N HCl. A mixture of detection buffer containing ruthenylated anti-BrdU antibody and streptavidin coated magnetic beads were added to the plate and incubated at room temperature for 1.5 hours prior to quantification via electrochemiluminescence instrument.

In data set [2] the target is T1, HIV reverse transcriptase with the K103N mutation (Human immunodeficiency virus type 1 group M subtype B, UniProt P04585, K690N).
T1 construct: made in house
Description: ECL assay for inhibition of mutant HIV reverse transcriptase (K103N). In kind it is biochemical, HIV-1. How it is done: as §1
(§2) Analogous assays were conducted substituting mutant HIV strains to determine the […] inhibition of compounds of the present invention against mutant HIV reverse transcriptase. In one strain the reverse transcriptase has the Y181C mutation and in the other strain the reverse transcriptase has the K103N mutation. The mutations were generated with the […] site-directed mutagenesis kit (Stratagene).

The target of data set [3] is T2, HIV reverse transcriptase with the Y181C mutation (Human immunodeficiency virus type 1 group M subtype B, UniProt P04585, Y768C).
T2 construct: made in house
Briefly: ECL assay for inhibition of mutant HIV reverse transcriptase (Y181C). In kind it is biochemical, HIV-1. As for the experimental part: as §1, §2

In the next data set the test system is wild type HIV-1. Briefly: Spread assay: inhibition of acute HIV-1 infection of T-lymphoid cells (WT). The settings on record: Human immunodeficiency virus 1, T-lymphoid; wild type HIV-1, 10% FBS; read-out: Spread (WT) CIC95 (10% FBS). The data set is classed as cell-based. How it is done:
(§3) Assays for the inhibition of acute HIV-1 infection of T-lymphoid cells (alternatively referred to herein as the “spread assay”) were conducted in accordance with Vacca, J. P. et al., Proc. Natl. Acad. Sci. USA 1994, 91: 4096. The assays tested for inhibition of wild type HIV-1 and of HIV strains containing the Y181C or K103N mutation. […] Table C also reports the CIC95 values of certain of the title compounds of Examples 1-25 obtained in the assays employing the Y181C mutant strain and the K103N mutant strain.

Data set [4] relates to HIV strain containing the K103N mutation. Description: Spread assay: inhibition of acute HIV-1 infection of T-lymphoid cells (K103N). In kind it is cell-based. The settings on record: Human immunodeficiency virus 1, T-lymphoid, read-out: Spread (K103N) CIC95 (10% FBS). As for the experimental part: as §3
Data set [5] relates to HIV strain containing the Y181C mutation. Briefly: Spread assay: inhibition of acute HIV-1 infection of T-lymphoid cells (Y181C). The data set is classed as cell-based. The settings on record: Human immunodeficiency virus 1, T-lymphoid, read-out: Spread (Y181C) CIC95 (10% FBS). How it is done:
as §3

For the next data set, the system named is T-lymphoid cells. In kind it is cell-based. How it is done: Cytotoxicity was determined by microscopic examination of the cells in each well in the spread assay, wherein a trained analyst observed each culture for any of the following morphological changes as compared to the control cultures: pH imbalance, cell abnormality, cytostatic, cytopathic, or crystallization (i.e., the compound is not soluble or forms crystals in the well). The toxicity value assigned to a given compound is the lowest concentration of the compound at which one of the above changes is observed.

[6] abbreviates: wild-type HIV-1 RT, read-out: ECL Assay (WT) IC50.
Setting [7] is: K103N mutant RT, read-out: ECL Assay (K103N) IC50.
Setting [8] is: Y181C mutant RT, read-out: ECL Assay (Y181C) IC50.

`N#Cc1cc(Cl)cc(Oc2nc(NCc3n[nH]c4ncccc34)c(Cl)cc2F)c1` [Compound 1-7, 3-chloro-5-({5-chloro-3-fluoro-6-[(1H-pyrazolo[3,4-b]pyridin-3-ylmethyl)amino]pyridin-2-yl}oxy)benzonitrile]: the figures for the IC50 in data set [1] (setting [6]), in data set [2] (setting [7]) and in data set [3] (setting [8]) were 0.3 nM, 1.5 nM and 0.4 nM, respectively. Moreover, the IC95 in the data set with wild type HIV-1 turned out to be 0.003 µM; in data set [4], 0.094 µM; in data set [5] it was 0.013 µM. Also, the “Cytotoxicity: no cytotoxicity at concentrations up to” value in the data set with T-lymphoid cells is recorded as above 833 nM.

As for `N#Cc1cc(Cl)cc(Oc2nc(NCc3n[nH]c4nc(N)ccc34)c(Cl)cc2F)c1` [Compound 2-7, 3-[(6-{[(6-amino-1H-pyrazolo[3,4-b]pyridin-3-yl)methyl]amino}-5-chloro-3-fluoropyridin-2-yl)oxy]-5-chlorobenzonitrile], the concentration for half-maximal inhibition (IC50) in data set [1] (setting [6]) is 0.5 nM; in data set [2] (setting [7]), 0.6 nM; in data set [3] (setting [8]) it was 1 nM. Further, the IC95 with wild type HIV-1 came out at 0.003 µM; in data set [4] it was 0.028 µM; in data set [5], 0.014 µM. Also, in the data set on T-lymphoid cells, the “Cytotoxicity: no cytotoxicity at concentrations up to” value is recorded as above 833 nM.

In the case of `N#Cc1cc(Cl)cc(Oc2c(Cl)c(CCc3n[nH]c4ncccc34)[nH]c(=O)c2Cl)c1` [Compound 5-6, 3-chloro-5-({3,5-dichloro-2-oxo-6-[2-(1H-pyrazolo[3,4-b]pyridin-3-yl)ethyl]-1,2-dihydropyridin-4-yl}oxy)benzonitrile], the figures for the IC50 in data set [1] (setting [6]), in data set [2] (setting [7]) and in data set [3] (setting [8]) were 1.2 nM, 1.8 nM and 1.6 nM, respectively. The IC95 in the data set on wild type HIV-1 worked out at 0.042 µM; in data set [4] it was 0.367 µM. In the data set on T-lymphoid cells, the “Cytotoxicity: no cytotoxicity at concentrations of up to” value is above 8.5 µM.

For the compound `CCOC(=O)c1cc(Cl)cc(Oc2c(Cl)c(CCc3n[nH]c4ncccc34)[nH]c(=O)c2Cl)c1` [Compound 5-7, ethyl 3-chloro-5-({3,5-dichloro-2-oxo-6-[2-(1H-pyrazolo[3,4-b]pyridin-3-yl)ethyl]-1,2-dihydropyridin-4-yl}oxy)benzoate], the IC50 was 3.5 nM in data set [1] (setting [6]), 52 nM in data set [2] (setting [7]) and 49 nM in data set [3] (setting [8]). Also, in the data set with wild type HIV-1, the IC95 worked out at 1.22 µM. Further, the “Cytotoxicity: no cytotoxicity at concentrations of up to” value in the data set on T-lymphoid cells was above 8.5 µM.

In the case of `N#Cc1cc(Cl)cc(Oc2cc(CCc3n[nH]c4ncccc34)ncc2Cl)c1` [Compound 6-5, 3-chloro-5-({5-chloro-2-[2-(1H-pyrazolo[3,4-b]pyridin-3-yl)ethyl]pyridin-4-yl}oxy)benzonitrile], the IC50 in data set [1] (setting [6]) stood at 25 nM; in data set [2] (setting [7]) it was 87 nM; in data set [3] (setting [8]) it was 270 nM. Also, the IC95 worked out at 0.103 µM in the data set on wild type HIV-1 and 0.361 µM in data set [4]. The “Cytotoxicity: no cytotoxicity at concentrations of up to” value in the data set on T-lymphoid cells was above 8.5 µM.

As to `Cc1nc(OCc2n[nH]c3ncccc23)c(Cl)c(Oc2cc(Cl)cc(C#N)c2)c1Cl` [Compound 7-1, 3-chloro-5-{[3,5-dichloro-2-methyl-6-(1H-pyrazolo[3,4-b]pyridin-3-ylmethoxy)pyridin-4-yl]oxy}benzonitrile], the IC50 in data set [1] (setting [6]) worked out at 1.3 nM; in data set [2] (setting [7]), 27 nM; in data set [3] (setting [8]), 3.5 nM. Besides, the IC95 with wild type HIV-1 was 0.1 µM; in data set [4], 1.7 µM. For the same compound, the “Cytotoxicity: no cytotoxicity at concentrations of up to” value in the data set on T-lymphoid cells is above 8.5 µM.

Regarding `N#Cc1cc(Cl)cc(Oc2cc(NCc3n[nH]c4ncccc34)[nH]c(=O)c2Cl)c1` [Compound 8-5, 3-chloro-5-({3-chloro-2-oxo-6-[(1H-pyrazolo[3,4-b]pyridin-3-ylmethyl)amino]-1,2-dihydropyridin-4-yl}oxy)benzonitrile], the concentration for half-maximal inhibition (IC50) was 0.9 nM in data set [1] (setting [6]), 11 nM in data set [2] (setting [7]) and 5.7 nM in data set [3] (setting [8]). Also, the figures for the IC95 (with wild type HIV-1; in data set [4]) were 0.034 µM and 0.833 µM, respectively. The “Cytotoxicity: no cytotoxicity at concentrations of up to” value in the data set on T-lymphoid cells was above 8.5 µM.

As for `N#Cc1cc(Cl)cc(Oc2cc(Cn3c(=O)[nH]c4ccccc43)[nH]c(=O)c2Cl)c1` [Compound 9-8, 3-chloro-5-({3-chloro-2-oxo-6-[(2-oxo-2,3-dihydro-1H-benzimidazol-1-yl)methyl]-1,2-dihydropyridin-4-yl}oxy)benzonitrile], the IC50 was found to be 4.8 nM in data set [1] (setting [6]), 13 nM in data set [2] (setting [7]) and 6.3 nM in data set [3] (setting [8]). For the same compound, the IC95 in the data set with wild type HIV-1 amounted to 0.638 µM. Moreover, in the data set with T-lymphoid cells, the “Cytotoxicity: no cytotoxicity at concentrations of up to” value was above 8.5 µM.

Consider `Cc1ccn(Cc2n[nH]c3ncccc23)c(=O)c1Oc1cc(Cl)cc(C#N)c1` [Compound 11-7, 3-chloro-5-{[4-methyl-2-oxo-1-(1H-pyrazolo[3,4-b]pyridin-3-ylmethyl)-1,2-dihydropyridin-3-yl]oxy}benzonitrile], for which the IC50 stood at 2.5 nM in data set [1] (setting [6]), 3.7 nM in data set [2] (setting [7]) and 3.2 nM in data set [3] (setting [8]). Further, the IC95 in the data set on wild type HIV-1 was determined as 0.007 µM; in data set [4], 0.014 µM. The “Cytotoxicity: no cytotoxicity at concentrations up to” value in the data set on T-lymphoid cells was above 833 nM.

Regarding `Cc1ccn(CCc2n[nH]c3ncccc23)c(=O)c1Oc1cc(Cl)cc(C#N)c1` [Compound 12-7, 3-chloro-5-({4-methyl-2-oxo-1-[2-(1H-pyrazolo[3,4-b]pyridin-3-yl)ethyl]-1,2-dihydropyridin-3-yl}oxy)benzonitrile], the IC50 turned out to be 25 nM in data set [1] (setting [6]), 58 nM in data set [2] (setting [7]) and 51 nM in data set [3] (setting [8]). Further, the IC95 was found to be 0.248 µM in the data set with wild type HIV-1 and 0.447 µM in data set [4]. For the same compound, in the data set on T-lymphoid cells, the “Cytotoxicity: no cytotoxicity at concentrations up to” value is listed as above 833 nM.

In the case of `CN(Cc1ccccc1Cl)C(=O)Cn1ccc(C(F)(F)F)c(Oc2cc(Cl)cc(C#N)c2)c1=O` [Compound 14, N-(2-chlorobenzyl)-2-[3-(3-chloro-5-cyanophenoxy)-2-oxo-4-(trifluoromethyl)pyridin-1(2H)-yl]-N-methylacetamide], the results for the IC50 in data set [1] (setting [6]), in data set [2] (setting [7]) and in data set [3] (setting [8]) were 300 nM, 440 nM and 290 nM, respectively. Besides, the values for the IC95 (in the data set with wild type HIV-1; in data set [4]) were 0.33 µM and 0.284 µM, respectively. Further, the “Cytotoxicity: no cytotoxicity at concentrations up to” value in the data set on T-lymphoid cells was above 833 nM.

Take `N#Cc1cc(Cl)cc(Oc2c(C(F)(F)F)ccn(CC(=O)Nc3ccc(S(N)(=O)=O)cc3Cl)c2=O)c1` [Compound 15, N-[4-(aminosulfonyl)-2-chlorophenyl]-2-[3-(3-chloro-5-cyanophenoxy)-2-oxo-4-(trifluoromethyl)pyridin-1 (2H)-yl]acetamide]: the IC50 amounted to 3.3 nM in data set [1] (setting [6]), 4.8 nM in data set [2] (setting [7]) and 3.9 nM in data set [3] (setting [8]). Moreover, the IC95 in the data set with wild type HIV-1 was 0.01 µM; in data set [4], 0.006 µM. The “Cytotoxicity: no cytotoxicity at concentrations up to” value in the data set on T-lymphoid cells is reported as above 833 nM.

Consider `N#Cc1cc(Cl)cc(Oc2c(Cl)ccn(Cc3n[nH]c4ncccc34)c2=O)c1` [Compound 21-8, 3-chloro-5-{[4-chloro-2-oxo-1-(1H-pyrazolo[3,4-b]pyridin-3-ylmethyl)-1,2-dihydropyridin-3-yl]oxy}benzonitrile], for which the results for the IC50 in data set [1] (setting [6]), in data set [2] (setting [7]) and in data set [3] (setting [8]) were 0.8 nM, 1.4 nM and 1 nM, respectively. Moreover, the results for the IC95 (in the data set on wild type HIV-1; in data set [5]) were 0.003 µM and 0.008 µM, respectively. For the same compound, in the data set with T-lymphoid cells, the “Cytotoxicity: no cytotoxicity at concentrations up to” value was above 833 nM.

Turning to `N#Cc1cc(Cl)cc(Oc2cc(C(O)c3n[nH]c4ncccc34)[nH]c(=O)c2Cl)c1` (centres unmarked) [Compound 25-2], the IC50 in data set [1] stood at 3.2 nM; in data set [2], 13 nM; in data set [3] it was 4.7 nM. The IC95 in the data set with wild type HIV-1 turned out to be 0.028 µM; in data set [4] it was 0.18 µM.
